Data taken from patent US7745390B2, “Antimicrobial peptides” (priority 2005, dated 2010).
Values after ≈ are worked out from the molar mass of the structure shown. Square brackets hold non-standard residues; d marks the D form. Ends that are not written are not given here. Peptide text beside a SMILES is read from it.

Tests used:
E. coli DH5a = assay type: cell-based; conditions: DH5a; for E. coli DH5a MIC / IC50: pH 7.2
In short: (§1)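 Peptides and bacteria (~5×10^6 CFU/ml) incubated 3 hours at 37° C in 10 mM phosphate buffer pH 7.2 with 0.03% LB. LB then added, overnight growth, OD600 read. MIC = lowest concentration with no growth; IC50 = concentration giving 50% growth relative to medium.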

B. cereus = assay type: cell-based; conditions: pH 7.2
In short: as §1

Jurkat cells = assay type: cell-based
Description: (§2) To further investigate the contribution of secondary structure to function, additional Peptides G16-G19 (beyond peptides G1-G15, previously reported) were synthesized. Peptide G16 is identical to G13, except that a D-alanine residue was substituted for the L-alanine at position 30. […] In peptide G17, the two arginine residues in loop two are substituted with glutamine.
(§3) As shown above, substitution of the two arginine residues in Loop 2 with glutamine abrogates activity against Jurkat cells but only slightly affects lysis of S. typhimurium. Peptide G18 is identical to G14 except that a D-arginine was substituted at position 46. […] Peptide G19 incorporates both the R→Q substitutions as well as the D-arginine at position 46.

Salmonella = assay type: cell-based, S. typhimurium; conditions: pH 7.2
In short: as §1

U937 cells = assay: Lysis of tumor cells: apoptosis of U937 by 3H-thymidine; conditions: U937, 50 μM peptide, 4-6 hours
Description: The effects were tested in two ways. First, peptides were tested for the ability to lyse tumor cells, as judged by induction of apoptosis in the monocyte-like cell line U937. U937 cells were cultured overnight in DMEM supplemented with 10% FCS plus 1 μCi/ml ^3H-thymidine. The next day, cells were washed and cultured in DMEM/10% FCS in the presence of 50 μM peptide for 4-6 hours. Cells were then harvested and ^3H-thymidine determined by beta-scintillation counting. Apoptosis results in DNA fragmentation, so the ^3H-thymidine is reduced in cells undergoing apoptosis.

[1] = system: human peripheral blood mononuclear cells (PBMC); assay: Propidium iodide uptake in PBMC; assay type: cell-based; conditions: for PI uptake in normal human PBMC: 50 μM peptide, three hours
Description: The second assay for effects on mammalian cells involved isolating human peripheral blood mononuclear cells (PBMC) and testing peptide induced uptake of propidium iodide (PI), a measure of membrane disruption. […] Thus, the vast majority of granulysin peptide derivatives are not toxic to mammalian cells even at high concentrations.

bacterial strains = assay: organism not typed; assay type: cell-based
Description: Three preferred peptides G11.46, G12.21 and G14.15, discussed above, were further tested for antimicrobial efficacy under various conditions using the 10% FCS/DMEM assay as described under CFU assay. The incubation times with the bacteria and peptide was three hours, at which time the bacteria were diluted and plated on agar. […] The MIC for each compound is highlighted.
Table 9 below repeats some data presented above in Tables 6, 7, and 8.

S. typhimurium = assay: Lysis of bacteria by counting bacterial colonies on plates; assay type: cell-based; conditions: colony counting
Description: as §2, §3
The experiments described above characterizing the activity of granulysin peptides G1-G18 relied on counting bacterial colonies on plates. This assay is quite labor intensive and would not allow evaluation of many different compounds on a number of different microbes. Therefore, we optimized an assay in which the entire procedure could be completed in a single microtiter well. […] The OD at 600 nm is read on an ELISA plate reader. […]

E. coli = conditions: previously reported; cited from earlier work

Molecule	E. coli DH5a MIC (E. coli DH5a) [µM]	IC50 (E. coli DH5a) [nM]	B. cereus MIC (B. cereus) [µM]	IC50 (B. cereus) [nM]	lysis of Jurkat cells (Jurkat cells)	IC50 (Salmonella) [nM]	Salmonella MIC (Salmonella) [µM]	apoptosis of tumor cells (U937 cells)	toxicity against mammalian cells [1]	PI uptake in normal human PBMC [1]	MIC (E. coli DH5a) [µM]	MIC (bacterial strains; ATCC#25922, 3 h) [µM]	MIC (bacterial strains; ATCC#29213, 3 h) [µM]	MIC (bacterial strains; ATCC#53522, 3 h) [µM]	MIC (bacterial strains; SL1344, 3 h) [µM]	lysis of bacteria (S. typhimurium) (S. typhimurium)	activity depending on ionic strength of media (E. coli)
GRSRWRDVCRNFMRR [Peptide G14, GRSRWRDVCRNFMRR, reference compound]	1.37	890	2.8	1750	lyses both bacteria and mammalian cells	890	1.37	–	–	–	–	–	–	–	–	–	–
CC[C@@H](C)[C@@H](NC(=O)[C@@H](CCCNC(=N)N)NC(=O)[C@@H](CCCNC(=N)N)NC(=O)[C@@H](CO)NC(=O)[C@@H](CCCNC(=N)N)NC(=O)[C@@H](Cc1ccc(O)cc1)NC(=O)[C@@H](CCCNC(=N)N)NC(=O)[C@@H](CCCNC(=N)N)NC(=O)[C@@H](CCSC)NC(=O)[C@@H](Cc1ccccc1)NC(=O)[C@@H](CCCNC(=N)N)NC(=O)[C@@H](CCCNC(=N)N)NC(=O)[C@@H](CO)NC(=O)[C@H](NC(=O)[C@@H](CCCNC(=N)N)NC(=O)[C@H](N)CCCNC(=N)N)C(C)C)C(=O)N[C@H](CCCNC(=N)N)C(=O)N[C@H](CCCNC(=N)N)C(=O)N[C@H](CC(C)C)C(=O)N[C@@H](C(=O)O)C(C)C [Peptide G12.34, rrvsrrfmrryrsrrirrlv] (H-[dR][dR][dV][dS][dR][dR][dF][dM][dR][dR][dY][dR][dS][dR][dR][dI][dR][dR][dL][dV]-OH)	0.2	110	0.31	120	–	210	0.78	cause apoptosis of tumor cells	somewhat lytic against mammalian cells	caused PI uptake in normal human PBMC	–	–	–	–	–	–	–
CSCC[C@@H](NC(=O)[C@@H](Cc1ccccc1)NC(=O)[C@@H](CCCNC(=N)N)NC(=O)[C@@H](CCCNC(=N)N)NC(=O)[C@@H](CO)NC(=O)[C@H](NC(=O)[C@@H](CCCNC(=N)N)NC(=O)[C@H](N)CCCNC(=N)N)C(C)C)C(=O)N[C@H](CCCNC(=N)N)C(=O)N[C@H](CCCNC(=N)N)C(=O)N[C@H](Cc1ccc(O)cc1)C(=O)N[C@H](CCCNC(=N)N)C(=O)N[C@H](CO)C(=O)N[C@H](CCCNC(=N)N)C(=O)N[C@H](CCCNC(=N)N)C(=O)N1CCC[C@@H]1C(=O)N[C@H](CCCNC(=N)N)C(=O)N[C@H](CCCNC(=N)N)C(=O)N[C@H](CC(C)C)C(=O)N[C@@H](C(=O)O)C(C)C [Peptide G12.35, rrvsrrfmrryrsrrprrlv] (H-[dR][dR][dV][dS][dR][dR][dF][dM][dR][dR][dY][dR][dS][dR][dR][dP][dR][dR][dL][dV]-OH)	0.11	< 78	0.75	450	–	210	0.32	cause apoptosis of tumor cells	somewhat less toxic against mammalian cells	caused PI uptake in normal human PBMC	–	–	–	–	–	–	–
CSCC[C@@H](NC(=O)[C@H]1CCCN1C(=O)[C@@H](CCCNC(=N)N)NC(=O)[C@@H](CCCNC(=N)N)NC(=O)[C@@H](CO)NC(=O)[C@H](NC(=O)[C@@H](CCCNC(=N)N)NC(=O)[C@H](N)CCCNC(=N)N)C(C)C)C(=O)N[C@H](CCCNC(=N)N)C(=O)N[C@H](CCCNC(=N)N)C(=O)N[C@H](Cc1ccc(O)cc1)C(=O)N[C@H](CCCNC(=N)N)C(=O)N[C@H](CO)C(=O)N[C@H](CCCNC(=N)N)C(=O)N[C@H](CCCNC(=N)N)C(=O)N1CCC[C@@H]1C(=O)N[C@H](CCCNC(=N)N)C(=O)N[C@H](CCCNC(=N)N)C(=O)N[C@H](CC(C)C)C(=O)N[C@@H](C(=O)O)C(C)C [Peptide G12.21, rrvsrrpmrryrsrrprrlv] (H-[dR][dR][dV][dS][dR][dR][dP][dM][dR][dR][dY][dR][dS][dR][dR][dP][dR][dR][dL][dV]-OH)	0.2	< 78	0.35	210	–	210	0.35	–	no toxicity	–	0.2 (≈ 0.542 µg/mL)	0.63 (≈ 1.71 µg/mL)	0.32 to 0.63	0.02 (≈ 0.0542 µg/mL)	1.25 to 2.5	–	–
CSCC[C@@H](NC(=O)[C@@H](Cc1ccccc1)NC(=O)[C@@H](CCCNC(=N)N)NC(=O)[C@@H](CCCNC(=N)N)NC(=O)[C@@H](CO)NC(=O)[C@H](NC(=O)[C@@H](CCCNC(=N)N)NC(=O)[C@@H](CCCNC(=N)N)NC(=O)[C@@H](Cc1c[nH]c2ccccc12)NC(=O)[C@@H](CCCNC(=N)N)NC(=O)[C@@H](CO)NC(=O)[C@@H](CCCNC(=N)N)NC(=O)CN)C(C)C)C(=O)N[C@H](CCCNC(=N)N)C(=O)N[C@H](CCCNC(=N)N)C(=O)O [Peptide G14.15, grsrwrrvsrrfmrr] (H-G[dR][dS][dR][dW][dR][dR][dV][dS][dR][dR][dF][dM][dR][dR]-OH)	0.1	< 78	0.2	< 78	–	150	0.35	–	–	caused PI uptake in normal human PBMC	0.3 (≈ 0.619 µg/mL)	0.63 to 1.25	10 (≈ 20.6 µg/mL)	0.16 (≈ 0.33 µg/mL)	2.5 to 5	–	–
GQSQWRDVCrNFMRR [Peptide G19]	–	–	–	–	–	–	–	–	–	–	–	–	–	–	–	behaves identically to G115	–
CSCC[C@H](NC(=O)[C@H](Cc1ccccc1)NC(=O)[C@H](CC(N)=O)NC(=O)[C@@H](CCCNC(=N)N)NC(=O)[C@H](CS)NC(=O)[C@@H](NC(=O)[C@H](CC(=O)O)NC(=O)[C@H](CCCNC(=N)N)NC(=O)[C@H](Cc1c[nH]c2ccccc12)NC(=O)[C@H](CCCNC(=N)N)NC(=O)[C@H](CO)NC(=O)[C@H](CCCNC(=N)N)NC(=O)CN)C(C)C)C(=O)N[C@@H](CCCNC(=N)N)C(=O)N[C@@H](CCCNC(=N)N)C(=O)O [Peptide G18, GRSRWRDVCrNFMRR] (H-GRSRWRDVC[dR]NFMRR-OH)	–	–	–	–	loses some activity against Jurkat cells	–	–	–	–	–	–	–	–	–	–	–	–
QRSVSNAaTRVCRTGQSQW [Peptide G17]	–	–	–	–	Neither peptide G16 nor G17 lysed Jurkat cells in an appreciable way	–	–	–	–	–	–	–	–	–	–	no longer exhibits activity against S. typhimurium	–
recombinant granulysin: protein expressed by human cytotoxic T lymphocytes and natural killer cells, recombinant form (protein, UniProt P22749 23-145, looked up) Granulysin: RLSPEYYDLARAHLRDEEKSCPCLAQEGPQGDLLTKTQELGRDYRTCLTIVQKLKKMVDKPTQRSVSNAATRVCRTGRSRWRDVCRNFMRRYQSRVTQGLVAGETAQQICEDLRLCIPSTGPL	–	–	–	–	–	–	–	–	–	–	–	–	–	–	–	–	completely loses activity in media>50 mM salt
